Data: patent US20220395522A1, “Methods of Use of Glucosamine for Increasing Nitrogen Retention” (TSI Bioproducts (Xuzhou) Co., Ltd., priority 2021, published 2022)

How the values were obtained:
[1] = Body mass, heart rate and blood pressure in randomized, double-blind, placebo-controlled, cross-over supplementation study; format: in vivo, human; conditions: GLU condition, mean ± SD
Description: A randomized, double-blind, placebo-controlled, cross-over study design was conducted on healthy males and females. Participants were instructed to report to a laboratory after observing an overnight (8 to 10-hour) fast while maintaining adequate hydration. Participants were asked to abstain from exercise and avoid alcohol and caffeine consumption for 12 hours prior to each study visit. All participants first completed an initial eligibility visit during which a comprehensive medical history, consent document, and body mass index (BMI) assessment were completed. Results from the BMI assessment was used to finalize eligibility. Once deemed eligible, participants were provided with supplies to begin the study protocol.
(§1) The remainder of the study consisted of two identical patterns of testing with the exception of what supplementation protocol was followed. FIG. 1 provides a flowchart of the experimental design. Prior to each visit, food and physical activity logs were completed encompassing four days prior to the scheduled laboratory visit. The four days consisted of two weekend days and two weekdays. Each participant reported to the laboratory for a baseline measurement of height, weight, heart rate, and blood pressure. During this visit, participants completed the Bristol Stool Chart and Gastrointestinal Symptom Rating Scale (GSRS) to assess bowel habits and potential gastrointestinal symptoms. Participants were given instructions on how to collect a stool sample and were instructed to do so within 24 hours of each planned study visit. At the completion of this study visit, participants were provided with their first assigned supplement (either PLA [placebo] or GLU [glucosamine]) and instructed to begin supplementation 21 days prior to their second visit. Participants were instructed to collect their second stool sample on the day of their final supplementation dose. On the morning of their second study visit, participants reported to the laboratory after following identical pre-study instructions as previous visits (i.e., fasting, abstention from caffeine and exercise). Study participants again completed assessments for height, weight, heart rate, blood pressure, and questionnaires regarding their bowel habits and gastrointestinal symptoms while also providing their second stool sample and turning in completed food and activity logs. A washout period lasting a minimum of 14 days and a maximum of 21 days separated each phase of the crossover as shown in FIG. 1.
In a double-blind manner, a glucosamine supplement (GLU) or a maltodextrin placebo (PLA) was distributed in identical opaque capsules to all participants. On a daily basis, participants were instructed to ingest three capsules, each containing 1,000 mg of glucosamine hydrochloride (GlucosaGreen®, TSI Group Ltd. MT, USA) or a placebo (maltodextrin) identical in appearance for a total of 21 days. Each visit at the beginning of the supplementation regimen (Visits 1 and 4, respectively; See FIG. 1) occurred on or before the first day of supplementation while the final day of supplementation occurred the day before each participant's follow-up visit for that study period (Visits 2 and 4, respectively). Participants were instructed to ingest the supplement 15-30 minutes before breakfast with eight fluid ounces of cold water. In the case of a missed dose, participants were instructed to consume the missed dose as soon as possible with a meal. […] The dose of maltodextrin used in the following examples was two to five-fold lower, respectively, than these investigations.
Height and weight were measured for every participant without shoes and in minimal clothing using a standardized wall-mounted stadiometer (Tanita, model #HR-200, Tokyo, Japan) and a self-calibrating digital scale (Tanita, model #BWB-627A Class III, Tokyo, Japan). Prior to heart rate and blood pressure measurements, participants rested in a seated position for five minutes. […]

Bristol Stool Chart = format: in vivo, human; conditions: for Bristol Stool: GLU condition, mean ± SD
Source text: as §1, with “1. […] In a double-blind manner, a glucosamine supplement (GLU) or a maltodextrin placebo (PLA) was distributed in identical opaque capsules to all participants. On a daily basis, participants were instructed to ingest three capsules, each containing 1,000 mg of glucosamine hydrochloride (GlucosaGreen®, TSI Group Ltd. MT, USA) or a placebo (maltodextrin) identical in appearance for a total of 21 days. Each visit at the beginning of the supplementation regimen (Visits 1 and 4, respectively; See FIG. 1) occurred on or before the first day of supplementation while the final day of supplementation occurred the day before each participant's follow-up visit for that study period (Visits 2 and 4, respectively). Participants were instructed to ingest the supplement 15-30 minutes before breakfast with eight fluid ounces of cold water. In the case of a missed dose, participants were instructed to consume the missed dose as soon as possible with a meal. […]” for “1.”

[2] = Post 21 days, 3 x 1,000 mg/day oral

Question: Which “Diastolic BP” value [1, 2] does the source give for `Cl.N[C@H]1C(O)O[C@H](CO)[C@@H](O)[C@@H]1O` (stereo partly shown) [GLU, glucosamine hydrochloride] here?
Answer: Its value is 77.0 ± 9.8 mmHg.

Question: And the “Heart Rate” value [1, 2]?
Answer: Its value is 63.1 ± 8.1 beats/min.

Question: What about the “Systolic BP” value [1, 2] of the same molecule?
Answer: The value was 119.4 ± 10.8 mmHg.

Question: And the “Diastolic BP” value ([1]; Pre (baseline))?
Answer: The value was 73.9 ± 9.3 mmHg.

Question: What about the “Heart Rate” value ([1]; Pre (baseline)) of the same molecule?
Answer: The value was 66.8 ± 7.7 beats/min.

Question: And the “Systolic BP” value ([1]; Pre (baseline))?
Answer: The value was 121.7 ± 14.2 mmHg.

Question: And the “Bristol Stool” value (Bristol Stool Chart; [2])?
Answer: The value was 3.6 ± 0.8.

Question: And the “Bristol Stool” value (Bristol Stool Chart; Pre (baseline))?
Answer: The value was 3.3 ± 0.8.

Question: And the “Bristol Stool, %” value (Bristol Stool Chart; PLA vs. GLU, between-group)?
Answer: The value was −19.9%.

Question: And the “Changes in Bristol Stool chart ratings within group” value (Bristol Stool Chart; Post vs Pre, p=0.10)?
Answer: The value was “no significant changes”.
